Where a name gives a salt, the structure may show the parent alone.
What was measured:
PC12 neuronal cell = experiment: Neuronal survival of hydrogen peroxide treated PC-12 cells; type: cell-based; conditions: 1 mM H2O2 for 1 hour, 24 hours incubation, viable cells counted
Procedure: Neuronal Survival Experiments. For survival experiments, PC12 neuronal cell were seeded in 6-well plates at a density of 1×10^5 per well in Dulbecco's modified Eagle's medium (DMEM) supplemented with 1% fetal bovine serum (FBS) and 100 ng/ml nerve growth factor (NGF), herein after (“Media”), for 3 days. Media was changed every 3 days. Cells were treated in the presence or absence of 1 mM hydrogen peroxide (H2O2) for 1 hour in the presence or absence of either sildenafil Citrate, vardenafil, or tardalafil at 0.1-fold physiologic dose (0.5 μM, 0.3 μM and 0.4 μM, respectively), physiologic dose (5 μM, 3 μM and 4 μM, respectively) and 10-fold physiologic dose (50 μM, 30 μM and 40 μM, respectively). Treated cells were incubated for 24 hours at 37° C. Viable cells were detached and counted using an automated counter.

[1] = system: post-radical prostatectomy erection dysfunction; experiment: Clinical study: sildenafil citrate at the operative site in robot-assisted radical prostatectomy, potency recovery; type: in vivo, humans; conditions: 147 men
Procedure: Clinical Studies. For effective study in humans, 147 men that underwent robot-assisted radical prostatectomy were treated with sildenafil citrate at the operative site. Potency was reported in 24.2%, 84.2% and 93.3% of the subjects at three, six, and twelve months post-operative, respectively.

[2] = system: spinal motor and non-motor neurons; conditions: cited from earlier work

Structure (SMILES): COc1ccc(C2CNC(=O)C2)cc1OC1CCCC1 (centres unmarked) [rolipram]
- protection against H2O2-induced cell death (neuronal viability) (PC12 neuronal cell): significant protection

Structure (SMILES): CCCc1nn(C)c2c(=O)[nH]c(-c3cc(S(=O)(=O)N4CCN(C)CC4)ccc3OCC)nc12 [sildenafil citrate]
- Potency reported, % of subjects ([1]; six months post-operative): 84.2%
- Potency reported, % of subjects ([1]; three months post-operative): 24.2%
- Potency reported, % of subjects ([1]; twelve months post-operative): 93.3%

Structure (SMILES): CCCOc1ccccc1-c1nc2nn[nH]c2c(=O)[nH]1 [zaprinas]
- protection against acute Reactive Oxygen Species-induced neurotoxicity [2]: protect
